Details in all cases: in vivo
The test system of series [1] is 12 mm right basal ganglia infarct (acute lacunar infarct). More on the design: species or system human.
Series [2] has as its system subacute temporal lobe infarct with encephalomalacia. More on the design: species or system human.
Series [3] relates to TIA (transient ischemic attack) symptoms.

For `CN1C(=O)CN=C(c2ccccc2)c2cc(Cl)ccc21` [diazepam, 7-chloro-1,3-dihydro-1-methyl-5-phenyl-1,4-benzodiazepin-2(3H)-one], in series [1], the function after treatment entry is “returned to pre-stroke function”; the “leg weakness, expansion of the infarct, symptoms” value is “the weakness resolved and there was no further expansion of the infarct or worsening of symptoms”. In addition, in series [2], the “mental clarity noted by the patient” value is “clearing of fogginess” and the “vision in the right hemifield” value was “unable to regain vision in the right hemifield”.

Regarding `CC12CC3CC(C)(C1)CC(N)(C3)C2` [memantine, 3,5-dimethyladamantan-1-amine], in series [1], the function after treatment entry is given as “returned to pre-stroke function”; the “leg weakness, expansion of the infarct, symptoms” value was “the weakness resolved and there was no further expansion of the infarct or worsening of symptoms”. Also, in series [2], the “mental clarity noted by the patient” value is “clearing of fogginess” and the “vision in the right hemifield” value is on record as “unable to regain vision in the right hemifield”.

`Cc1ncc2n1-c1ccc(Cl)cc1C(c1ccccc1F)=NC2` [midazolam, 8-chloro-6-(2-fluorophenyl)-1-methyl-4H-imidazo[1,5a][1,4]benzodiazepine]: in series [3], the “clinical state the next day” value is “sitting talking to relatives, mentating better but could not swallow their own saliva”; the “effect on penumbra of injury” value is “preventing expansion of the penumbra of injury”; the “sedation (side effect) on the second night” value is on record as “drowsy”; the “swallowing on the second night” value is on record as “could swallow their own saliva”.

The record behind these values is patent US9433608B2 (priority 2013, dated 2016).
